What was measured:
[1] = tested on: rats; conditions: cited from earlier work
[2] = tested on: fatty acid synthesis; conditions: biological systems, profused organs and intact mammals; cited from earlier work
[3] = Solubility in water; format: physicochemical
[4] = Hygroscopicity; format: physicochemical

solubility in water (in words) [3] | hygroscopicity [4] | Structure (SMILES) | body weight [1] | lipid accumulation [1] | inhibition of fatty acid synthesis [2]
– | – | O=C(O)CC(O)(C(=O)O)C(O)C(=O)O (stereo not shown) [hydroxycitric acid] | significantly reduce the body weight | lower lipid accumulation | substantially inhibit fatty acid synthesis
moderately soluble | minimal hygroscopicity | O=C([O-])C[C@@](O)(C(=O)[O-])[C@H](O)C(=O)[O-].O=C([O-])C[C@@](O)(C(=O)[O-])[C@H](O)C(=O)[O-].[Ca+2].[Ca+2].[Ca+2] [pure calcium salt] | – | – | –
highly soluble | high hygroscopicity | O=C([O-])C[C@@](O)(C(=O)[O-])[C@H](O)C(=O)[O-].[K+].[K+].[K+] [pure potassium salt] | – | – | –

Reference: patent US7943186B2, “Hydroxycitric acid compositions, pharmaceutical and dietary supplements and food products made therefrom, and methods for their use in reducing body weight” (Interhealth Nutraceuticals, Inc., priority 1997, dated 2011)
